This is an account of results in US12421242B2, “Substituted tetrahydropyrrolo-pyridinone compounds and their use in treating medical conditions” (Karuna Therapeutics, Inc., priority 2022, dated 2025).

Some results are limits rather than exact numbers.

The target of one assay is T1, hM4 receptors (Homo sapiens, UniProt P08173).
T1 construct: expressed in transfected cells; host or cells: CHO cells
T1 sequence (P08173 1-479): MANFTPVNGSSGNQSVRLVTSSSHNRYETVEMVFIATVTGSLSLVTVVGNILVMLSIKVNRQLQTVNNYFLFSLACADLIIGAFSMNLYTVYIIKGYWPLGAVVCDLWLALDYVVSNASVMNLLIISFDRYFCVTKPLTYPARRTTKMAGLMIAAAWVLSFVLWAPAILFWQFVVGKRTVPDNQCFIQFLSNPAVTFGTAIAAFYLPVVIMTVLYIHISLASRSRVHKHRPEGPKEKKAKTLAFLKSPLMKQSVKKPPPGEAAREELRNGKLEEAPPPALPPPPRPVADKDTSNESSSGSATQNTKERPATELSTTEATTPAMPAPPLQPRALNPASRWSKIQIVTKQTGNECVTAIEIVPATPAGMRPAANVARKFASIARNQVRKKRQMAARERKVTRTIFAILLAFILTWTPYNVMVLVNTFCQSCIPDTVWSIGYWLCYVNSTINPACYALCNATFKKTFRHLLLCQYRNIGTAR
Briefly: Human M4 PAM pERK assay. It is filed as cell-based. The following applies: PAM mode. A digest of the protocol: (§1)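 CHO cells expressing hM4 or rM4 were serum-starved 4 h, then given compound (ten-point curve, 10 μM top, duplicate) with an EC20 of acetylcholine (10 nM final) for 5 min at 37° C. Phospho-ERK in lysates was detected by TR-FRET.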

In the next assay the target is T2, human M4 receptor (Homo sapiens, UniProt P08173).
T2 construct: expressed in transfected cells
T2 sequence (P08173 1-479): T1 sequence (P08173 1-479)
Briefly: M4 GTPγS PAM assay. In kind it is biochemical. The following applies: CHO-K1 membranes expressing human M4, with EC20 acetylcholine (40 nM). As for the experimental part: The M4 GTPγS PAM method was used. Membranes were prepared for GTPgS binding assays from CHO-K1 cells stably expressing human M4 receptor. Briefly, cells were grown in 5-layer cell culture flasks. Cells were washed with 50 mL of PBS and then dissociated with 0.05% trypsin. Dissociated cells were then collected by centrifugation at 650×g for 8 minutes at 4° C. Pellets were washed again in PBS by centrifugation and resuspended in 30 mL of 20 mM HEPES, 10 mM EDTA, pH 7.4. After sitting on ice for 30 min, membranes were collected by centrifugation at 50000×g for 15′ at 4° C., resuspended in 30 mL of 20 mM HEPES, 0.1 mM EDTA, pH 7.4 and collected again by centrifugation. Pellets were then washed twice by centrifugation in 30 mL of 20 mM HEPES, pH 7.4, and stored at −80° C. until the day of the assay. On the day of the assay, pellets were thawed on ice and resuspended in 1 mL of 20 mM HEPES, pH 7.4, 10 mM MgCl2, 100 mM NaCl using dounce homogenization. Membrane protein concentration is determined by BCA protein assay (Promega, Madison, WI) according to Promega guidelines.
On the day of the assay, serial dilutions of test PAM compounds were brought up in assay buffer (20 mM HEPES, 10 mM MgCl2, 100 mM NaCl) at 4× final assay concentration. […] of membrane homogenates (containing […] of membrane protein) were prepared in assay buffer supplemented with GDP at 4× final assay concentration (final assay concentration of GDP is 5 uM for M2 and 0.1 uM for M4) and dispensed into 96 well polypropylene, U-bottom Greiner plates. […] of vehicle or test PAM compound at 4× of final assay concentration diluted in the assay buffer were added to membrane and plates are incubated for 10-15 minutes at room temperature with gentle shaking. Then, […] of EC20 acetylcholine in assay buffer at 4× final assay concentration was added to assay plates (EC20 final assay concentrations was 40 nM for human M4).
Plates were then incubated, with shaking, for an additional 10-15 minutes. 25 mL of 0.4 nM ^35S-GTP (Perkin Elmer, Waltham, MA) in assay buffer was added to assay mixtures. The binding reaction is left on the shaker for 1 hour at room temperature. Membranes in assay reactions were then transferred to GF/C filter plates (Unifilter, Perkin Elmer) and washed three times using a FilterMate Harvester (Perkin Elmer) with cold assay buffer containing no GDP. Filter plates were then dried at 40° C. overnight followed by the addition of […] of Beta Plate Scintillation liquid. Plates are top and bottom sealed before being read on TopCount scintillation counter (Perkin Elmer, Waltham, MA).

For the next assay, the target named is T3, rM4 receptors (Rattus norvegicus, UniProt P08485).
T3 construct: expressed in transfected cells; host or cells: CHO cells
T3 sequence (P08485 1-478): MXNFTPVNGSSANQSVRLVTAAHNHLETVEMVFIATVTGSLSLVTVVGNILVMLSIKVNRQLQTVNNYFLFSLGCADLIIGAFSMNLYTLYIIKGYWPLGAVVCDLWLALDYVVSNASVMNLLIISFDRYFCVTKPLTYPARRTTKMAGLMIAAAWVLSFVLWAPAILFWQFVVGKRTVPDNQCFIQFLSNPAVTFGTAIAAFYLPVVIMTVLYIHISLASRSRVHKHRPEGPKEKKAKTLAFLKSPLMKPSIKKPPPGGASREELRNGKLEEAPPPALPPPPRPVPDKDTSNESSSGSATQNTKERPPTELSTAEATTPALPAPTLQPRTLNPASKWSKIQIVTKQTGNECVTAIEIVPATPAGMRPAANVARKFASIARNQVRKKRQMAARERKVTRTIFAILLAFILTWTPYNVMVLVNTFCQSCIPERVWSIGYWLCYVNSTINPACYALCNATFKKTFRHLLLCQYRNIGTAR
Briefly: Rat M4 PAM pERK assay. In kind it is cell-based. Conditions: PAM mode. A digest of the protocol:
as §1

Broadly, the EC50 is the concentration at which the effect is half-maximal. Read a high EC50 as weaker potency. As to `COc1cc(=O)n(C)c2c1C(C)N(C(=O)c1cnn(C(F)(F)F)c1)C2` (single isomer, unassigned) [Compound I-80], the results for the EC50 at hM4 receptors, at human M4 receptor and on rM4 receptors were 100 to 500 nM, above 2000 nM and above 2000 nM, respectively.

In the case of `Cc1c2c(n(C)c(=O)c1Cl)CN(C(=O)c1cc(C(F)(F)F)on1)C2` [Compound I-8], the EC50 on hM4 receptors was below 100 nM; on human M4 receptor it was above 2000 nM; at rM4 receptors, above 2000 nM.

With `COc1c2c(n(C)c(=O)c1Cl)CN(C(=O)c1cnn(C(F)(F)F)c1)C2C` (single isomer, unassigned) [Compound I-75], the EC50 at hM4 receptors, on human M4 receptor and at rM4 receptors was above 2000 nM in each case.

Take `Cc1c2c(n(C)c(=O)c1Cl)CN(C(=O)c1cn(C(C)C)cn1)C2` [Compound I-14]: the results for the concentration for a half-maximal effect (EC50) at hM4 receptors, at human M4 receptor and at rM4 receptors were 500 to 2000 nM, above 2000 nM and above 2000 nM, respectively.

As to `Cc1c2c(n(C)c(=O)c1F)CN(C(=O)c1cnn(C(F)(F)F)c1)C2` [Compound I-113, 3-Fluoro-1,4-dimethyl-6-(1-(trifluoromethyl)-1H-pyrazole-4-carbonyl)-1,5,6,7-tetrahydro-2H-pyrrolo[3,4-b]pyridin-2-one], the values for the EC50 at hM4 receptors, at human M4 receptor and at rM4 receptors were below 100 nM, 500 to 2000 nM and above 2000 nM, respectively.

For the compound `Cc1c2c(n(CC(F)(F)F)c(=O)c1Cl)CN(C(=O)c1ccc3nc(C4CC4)sc3c1)C2` [Compound I-72], the EC50 on hM4 receptors, at human M4 receptor and at rM4 receptors was 100 to 500 nM throughout.

Consider `Cc1c2c(n(C)c(=O)c1Cl)CN(C(=O)c1ccc(C(F)(F)F)cn1)C2` [Compound I-45], for which the EC50 on hM4 receptors was 100 to 500 nM; on human M4 receptor, above 2000 nM; on rM4 receptors, above 2000 nM.

With `Cc1cc(=O)n(C)c2c1C(C)N(C(=O)c1cnc(C3CC3)s1)C2` (single isomer, unassigned) [Compound I-96], the EC50 at hM4 receptors, on human M4 receptor and at rM4 receptors was above 2000 nM each time.

Turning to `Cc1cc(=O)n(C)c2c1[C@H](C)N(C(=O)c1ccc3nc(C4CC4)sc3c1)C2` [Compound I-102], the EC50 on hM4 receptors, at human M4 receptor and at rM4 receptors was above 2000 nM each time.

With `Cc1c2c(n(C)c(=O)c1Cl)CN(C(=O)c1ccnc(C(F)(F)F)c1)C2` [Compound I-42], the EC50 is 500 to 2000 nM at hM4 receptors, above 2000 nM on human M4 receptor and above 2000 nM at rM4 receptors.

For `Cc1c2c(n(C)c(=O)c1Cl)CN(C(=O)c1cccc(C(F)(F)F)c1)C2` [Compound I-40], the EC50 at hM4 receptors is 500 to 2000 nM; on human M4 receptor, above 2000 nM; at rM4 receptors, above 2000 nM.

As to `Cc1c2c(n(C)c(=O)c1Cl)CN(C(=O)c1cc(C3CC3)on1)C2` [Compound I-6], the EC50 is 100 to 500 nM on hM4 receptors, above 2000 nM at human M4 receptor and above 2000 nM at rM4 receptors.

On to `Cc1c2c(n(C)c(=O)c1Cl)CN(C(=O)c1cnc(C(F)(F)C3CC3)s1)C2` [Compound I-67, 3-Chloro-6-(2-(cyclopropyldifluoromethyl)thiazole-5-carbonyl)-1,4-dimethyl-1,5,6,7-tetrahydro-2H-pyrrolo[3,4-b]pyridin-2-one], for which the EC50 at hM4 receptors is below 100 nM; on human M4 receptor, 100 to 500 nM; on rM4 receptors it was 500 to 2000 nM.

For the compound `COc1cc(=O)n(C)c2c1C(C)N(C(=O)c1cnn(C(F)(F)F)c1)C2` (single isomer, unassigned) [Compound I-81], the EC50 at hM4 receptors, at human M4 receptor and at rM4 receptors was above 2000 nM each time.

Take `Cc1c2c(n(C)c(=O)c1Cl)CN(C(=O)c1cnc(C)n1C)C2` [Compound I-18]: the EC50 on hM4 receptors was 500 to 2000 nM; on human M4 receptor, above 2000 nM; at rM4 receptors, above 2000 nM.

Turning to `CSc1c2c(n(C)c(=O)c1C)CN(C(=O)c1cnn(C(F)(F)F)c1)C2` [Compound I-90, 1,3-Dimethyl-4-(methylthio)-6-(1-(trifluoromethyl)-1H-pyrazole-4-carbonyl)-1,5,6,7-tetrahydro-2H-pyrrolo[3,4-b]pyridin-2-one], the EC50 at hM4 receptors is 100 to 500 nM; on human M4 receptor it was 500 to 2000 nM; on rM4 receptors it was above 2000 nM.

With `Cc1c2c(n(C)c(=O)c1Cl)CN(C(=O)c1cnc(C3CC3)s1)C2` [Compound I-21], the values for the EC50 on hM4 receptors, on human M4 receptor and on rM4 receptors were below 100 nM, 100 to 500 nM and 500 to 2000 nM, respectively.

On to `Cc1c2c(n(C)c(=O)c1Cl)CN(C(=O)c1ccn(C)n1)C2` [Compound I-3], for which the EC50 is 500 to 2000 nM at hM4 receptors, above 2000 nM on human M4 receptor and above 2000 nM on rM4 receptors.

`Cc1cc(=O)n(C)c2c1C(C)N(C(=O)c1cnc(C3CC3)s1)C2` (single isomer, unassigned) [Compound I-97]: the EC50 on hM4 receptors was 100 to 500 nM; on human M4 receptor, above 2000 nM; on rM4 receptors it was above 2000 nM.

For the compound `Cc1c2c(n(C)c(=O)c1Cl)CN(C(=O)c1cnc(CC3CC3(F)F)s1)C2` (stereo not drawn) [Compound I-66], the EC50 at hM4 receptors is below 100 nM; at human M4 receptor, 500 to 2000 nM; at rM4 receptors it was above 2000 nM.

As to `COC(C)(C)Cn1cc(C(=O)N2Cc3c(C)c(Cl)c(=O)n(C)c3C2)cn1` [Compound I-62], the figures for the EC50 at hM4 receptors, on human M4 receptor and on rM4 receptors were above 2000 nM, 500 to 2000 nM and above 2000 nM, respectively.

As for `Cc1cc(=O)n(C)c2c1C(C)N(C(=O)c1ccc3nc(C4CC4)sc3c1)C2` (single isomer, unassigned) [Compound I-98], the EC50 on hM4 receptors, at human M4 receptor and at rM4 receptors was above 2000 nM in each case.

Take `Cc1c2c(n(C)c(=O)c1Cl)CN(C(=O)c1cnn(C(F)F)c1)C2` [Compound I-17]: the EC50 is below 100 nM on hM4 receptors, above 2000 nM at human M4 receptor and 500 to 2000 nM at rM4 receptors.

Turning to `Cc1cc(=O)n(C)c2c1[C@@H](C)N(C(=O)c1ccc3nc(C4CC4)sc3c1)C2` [Compound I-103], the 50% effective concentration (EC50) at hM4 receptors was 100 to 500 nM; at human M4 receptor it was above 2000 nM; on rM4 receptors, 500 to 2000 nM.

In the case of `Cc1coc(C(=O)N2Cc3c(C)c(Cl)c(=O)n(C)c3C2)n1` [Compound I-22], the values for the EC50 on hM4 receptors, at human M4 receptor and at rM4 receptors were 100 to 500 nM, 500 to 2000 nM and above 2000 nM, respectively.

With `Cc1cc(=O)n(C)c2c1C(C)N(C(=O)c1cnn(C(F)(F)F)c1)C2` (single isomer, unassigned) [Compound I-92, 1,4,5-Trimethyl-6-(1-(trifluoromethyl)-1H-pyrazole-4-carbonyl)-1,5,6,7-tetrahydro-2H-pyrrolo[3,4-b]pyridin-2-one], the EC50 at hM4 receptors, on human M4 receptor and at rM4 receptors was above 2000 nM throughout.
